Assay [1] has as its target PTPN11-E76K mutant enzyme (Homo sapiens (Human), UniProt Q06124, E76K). As to the kind of experiment: PTPN11 Enzymatic Assay (DiFMUP phosphatase activity). Format: biochemical. The conditions noted are these: DiFMUP 50 μM, 30 min preincubation. How it is done:
Reaction was initiated by addition of DiFMUP (50 μM) at room temperature in 384-well black plate with a final reaction volume of 20 uL in assay buffer. […] Dose-response curves were analyzed using IC50 regression curve fitting (GeneData Screener). Curves were normalized to a high controls without inhibitor, and low controls without enzyme.

Assay [2] has as its system Phospho-ERK levels in KYSE-520 cells. The assay can be described thus: pERK AlphaScreen Protocol. Format: cell-based. The conditions noted are these: read-out: PERK Avg IC50. The protocol: KYSE-520 cells (10 k cells/well) were grown in 384-well plate in 20 uL of medium (RPMI-1640, without phenol red, containing 10% FBS) at 37° C. with 5% CO2 overnight. DMSO (control) or increasing concentrations of compounds were diluted in medium, added to the 384-well plate (5 uL/well, final DMSO concentration of 1%), and cells were then incubated with compounds for 2 hr. Phospho-ERK levels were measured using phospho-ERK1/2 AlphaScreen SureFire (PerkinElmer, TGRESB10K) following manufacturer's recommendations. Dose-response curves were analyzed using IC50 regression curve fitting (GeneData Screener). Curves were normalized to a high control without inhibitor (DMSO only), and low control (1 μM selumetinib).
A general note: Alpha assays give light when donor and acceptor beads are brought close together.

The mark [3] stands for this setting: full length PTPN11-E76K mutant enzyme 250 pM, read-out: PTPN11-E76K Avg IC50.
Setting [4] is: Homo sapiens, KYSE-520, 2 h, KYSE-520 cells, 2 hr compound incubation, phospho-ERK1/2 AlphaScreen SureFire.

29 molecules from US10280171B2, “Heterocyclic inhibitors of PTPN11” (priority 2016, dated 2019) can be followed below.

In general, IC50 refers to the concentration that gives 50% inhibition.

Structures can show the parent of a compound that is named as a salt. Where two headings read alike, the source gives them in different places.

Chain of PTPN11-E76K mutant enzyme (Q06124 whole entry E76K): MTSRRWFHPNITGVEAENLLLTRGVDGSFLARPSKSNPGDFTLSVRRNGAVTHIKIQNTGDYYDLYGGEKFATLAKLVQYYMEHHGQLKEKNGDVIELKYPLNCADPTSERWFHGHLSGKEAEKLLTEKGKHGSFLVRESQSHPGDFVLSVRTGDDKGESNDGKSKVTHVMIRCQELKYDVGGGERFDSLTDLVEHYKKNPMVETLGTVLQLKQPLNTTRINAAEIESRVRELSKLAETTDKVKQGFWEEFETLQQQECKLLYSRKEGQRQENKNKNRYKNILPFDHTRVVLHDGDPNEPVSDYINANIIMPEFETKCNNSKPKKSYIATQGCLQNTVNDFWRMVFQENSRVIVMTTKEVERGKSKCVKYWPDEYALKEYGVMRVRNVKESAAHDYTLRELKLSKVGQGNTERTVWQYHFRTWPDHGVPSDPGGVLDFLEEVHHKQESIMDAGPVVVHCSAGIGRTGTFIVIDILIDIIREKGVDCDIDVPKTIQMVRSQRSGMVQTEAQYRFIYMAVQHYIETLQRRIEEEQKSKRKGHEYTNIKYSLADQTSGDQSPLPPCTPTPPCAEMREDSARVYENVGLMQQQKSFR

In the case of `N[C@@H]1CCCC12CCN(c1cnc3c(-c4cccc(Cl)c4F)n[nH]c3n1)CC2` [Example 49, (R)-8-(3-(3-chloro-2-fluorophenyl)-1H-pyrazolo[3,4-b]-pyrazin-6-yl)-8-aza-spiro[4.5]decan-1-amine], the IC50 is 143 nM in assay [1] (setting [3]) and 62 nM in assay [2] (setting [4]).

For `Nc1nccc(-c2n[nH]c3nc(N4CCC5(CC4)C[C@H](O)C[C@H]5N)cnc23)c1Cl` [Example 126, (2S,4R)-4-Amino-8-(3-(2-amino-3-chloropyridin-4-yl)-1H-pyrazolo[3,4-b]pyrazin-6-yl)-8-azaspiro[4.5]decan-2-ol], in assay [1] (setting [3]), the IC50 came to 75 nM.

With `CC1(N)CCN(c2cnc3c(-c4cccc(F)c4Cl)n[nH]c3n2)CC1` [Example 24, 1-(3-(2-chloro-3-fluorophenyl)-1H-pyrazolo[3,4-b]-pyrazin-6-yl)-4-methyl-piperidin-4-amine], the half-maximal inhibitory concentration (IC50) came out at 204 nM in assay [1] (setting [3]) and 142 nM in assay [2] (setting [4]). In the case of `COc1cccc(-c2n[nH]c3nc(N4CCC5(CCC[C@H]5N)CC4)cnc23)c1Cl` [Example 50, (R)-8-(3-(2-chloro-3-methoxyphenyl)-1H-pyrazolo[3,4-b]pyrazin-6-yl)-8-azaspiro[4.5]decan-1-amine], the IC50 is 39 nM in assay [1] (setting [3]) and 34 nM in assay [2] (setting [4]).

`COc1cc(-c2n[nH]c3nc(N4CCC(C)(CN)CC4)cnc23)ccc1Cl` [Example 33, (1-(3-(4-Chloro-3-methoxyphenyl)-1H-pyrazolo[3,4-b]pyrazin-6-yl)-4-methylpiperidin-4-yl)methanamine]: the results for the half-maximal inhibitory concentration (IC50) in assay [1] (setting [3]) and in assay [2] (setting [4]) were 72 nM and 96 nM, respectively. For `CC1(CN)CCN(c2cnc3c(-c4cc(Cl)cc(Cl)c4)n[nH]c3n2)CC1` [Example 11, (1-(3-(3,5-dichloro-phenyl)-1H-pyrazolo[3,4-b]-pyrazin-6-yl)-4-methylpiperidin-4-yl) methanamine], in that order: 632 nM and 1170 nM. For `CC1(N)CCN(c2cnc3c(-c4cc(N)ncc4Cl)n[nH]c3n2)CC1` [Example 138, 4-[6-(4-amino-4-methylpiperidin-1-yl)-1H-pyrazolo[3,4-b]pyrazin-3-yl]-5-chloropyridin-2-amine], the IC50 amounted to 587 nM in assay [1] (setting [3]) and 406 nM in assay [2] (setting [4]). As to `CC1(CN)CCN(c2cnc3c(-c4cccnc4Cl)n[nH]c3n2)CC1` [Example 36, (1-(3-(2-chloro-pyridin-3-yl)-1H-pyrazolo[3,4-b]-pyrazin-6-yl)-4-methylpiperidin-4-yl) methanamine], the IC50 was 967 nM in assay [1] (setting [3]) and 320 nM in assay [2] (setting [4]).

As to `NCC1(O)CCN(c2cnc3c(-c4cccc(Cl)c4Cl)n[nH]c3n2)CC1` [Example 8, 4-(aminomethyl)-1-(3-(2,3-dichloro-phenyl)-1H-pyrazolo[3,4-b]-pyrazin-6-yl)-piperidin-4-ol], the values for the half-inhibitory concentration (IC50) in assay [1] (setting [3]) and in assay [2] (setting [4]) were 204 nM and 86 nM, respectively. With `N[C@@H]1COCC12CCN(c1cnc3c(-c4cccnc4Cl)n[nH]c3n1)CC2` [Example 41, (S)-8-(3-(2-chloro-pyridin-3-yl)-1H-pyrazolo[3,4-b]-pyrazin-6-yl)-2-oxa-8-azaspiro[4.5]-decan-4-amine trifluoroacetate], the IC50 amounted to 966 nM in assay [1] (setting [3]) and 394 nM in assay [2] (Homo sapiens, KYSE-520, 2 h). For `COc1cc(Cl)cc(-c2n[nH]c3nc(N4CCC(C)(CN)CC4)cnc23)c1` [Example 35, (1-(3-(3-chloro-5-methoxyphenyl)-1H-pyrazolo[3,4-b]-pyrazin-6-yl)-4-methylpiperidin-4-yl) methanamine], the IC50 amounted to 304 nM in assay [1] (setting [3]) and 704 nM in assay [2] (setting [4]). In the case of `NCC1(O)CCN(c2cnc3c(-c4cc(N)ncc4Cl)n[nH]c3n2)CC1` [Example 134, 1-[3-(2-amino-5-chloropyridin-4-yl)-1H-pyrazolo[3,4-b]-pyrazin-6-yl]-4-(aminomethyl)-piperidin-4-ol], the values for the 50% inhibitory concentration (IC50) in assay [1] (setting [3]) and in assay [2] (setting [4]) were 1530 nM and 2010 nM, respectively. As for `NC1C(F)(F)CCC12CCN(c1cnc3c(-c4cccc(Cl)c4Cl)n[nH]c3n1)CC2` (single isomer, unassigned) [Example 65B, 8-(3-(2,3-Dichlorophenyl)-1H-pyrazolo[3,4-b]pyrazin-6-yl)-2,2-difluoro-8-azaspiro[4.5]decan-1-amine], the IC50 in assay [1] (PTPN11-E76K Avg IC50, full length PTPN11-E76K mutant enzyme 250 pM) amounted to 471 nM; in assay [2] (KYSE-520 cells, 2 hr compound incubation, phospho-ERK1/2 AlphaScreen SureFire), 165 nM. For the molecule `Nc1cc(-c2n[nH]c3nc(N4CCC5(CCC[C@H]5N)CC4)cnc23)c(Cl)cn1` [Example 125, (R)-8-(3-(2-amino-5-chloropyridin-4-yl)-1H-pyrazolo[3,4-b]pyrazin-6-yl)-8-azaspiro[4.5]decan-1-amine], the IC50 in assay [1] (setting [3]) worked out at 509 nM; in assay [2] (setting [4]), 429 nM.

In the case of `CC1(N)CCN(c2cnc3c(-c4cccc(Cl)c4)n[nH]c3n2)CC1` [Example 10, 1-(3-(3-chloro-phenyl)-1H-pyrazolo[3,4-b]-pyrazin-6-yl)-4-methylpiperidin-4-amine], the results for the half-inhibitory concentration (IC50) in assay [1] (setting [3]) and in assay [2] (setting [4]) were 333 nM and 172 nM, respectively. In the case of `N[C@@H]1CCCC12CCN(c1cnc3c(-c4cccc(C(F)(F)F)c4)n[nH]c3n1)CC2` [Example 48, (R)-8-(3-(3-(trifluoromethyl)-phenyl)-1H-pyrazolo[3,4-b]pyrazin-6-yl)-8-azaspiro[4.5]decan-1-amine], the values for the IC50 in assay [1] (setting [3]) and in assay [2] (setting [4]) were 1760 nM and 586 nM, respectively.

Take `CC1(CN)CCN(c2cnc3c(-c4ccnc(N)c4Cl)n[nH]c3n2)CC1` [Example 107, 4-(6-(4-(Aminomethyl)-4-methylpiperidin-1-yl)-1H-pyrazolo[3,4-b]pyrazin-3-yl)-3-chloropyridin-2-amine]: the results for the IC50 in assay [1] (setting [3]) and in assay [2] (setting [4]) were 162 nM and 246 nM, respectively. On to `Cc1c(-c2n[nH]c3nc(N4CCC(C)(N)CC4)cnc23)ccnc1N` [Example 123, 4-(6-(4-amino-4-methylpiperidin-1-yl)-1H-pyrazolo[3,4-b]pyrazin-3-yl)-3-methylpyridin-2-amine], for which the IC50 in assay [1] (setting [3]) was determined as 670 nM. Turning to `NCC1(O)CCN(c2cnc3c(-c4ccccc4Cl)n[nH]c3n2)CC1` [Example 60, 4-(aminomethyl)-1-(3-(2-chlorophenyl)-1H-pyrazolo[3,4-b]-pyrazin-6-yl)-piperidin-4-ol], the values for the IC50 in assay [1] (setting [3]) and in assay [2] (setting [4]) were 918 nM and 317 nM, respectively. Consider `CC1(CN)CCN(c2cnc3c(-c4cccc(Cl)c4F)n[nH]c3n2)CC1` [Example 25, (1-(3-(3-Chloro-2-fluorophenyl)-1H-pyrazolo[3,4-b]pyrazin-6-yl)-4-methylpiperidin-4-yl)-methanamine], for which the half-inhibitory concentration (IC50) in assay [1] (setting [3]) was found to be 101 nM; in assay [2] (setting [4]), 47 nM. For `COc1cccc(-c2n[nH]c3nc(N4CCC(C)(CN)CC4)cnc23)c1Cl` [Example 27, (1-(3-(2-chloro-3-methoxy phenyl)-1H-pyrazolo[3,4-b]pyrazin-6-yl)-4-methylpiperidin-4-yl) methanamine], in that order: 80 nM and 55 nM.

For `NC1(CF)CCN(c2cnc3c(-c4cccc(Cl)c4Cl)n[nH]c3n2)CC1` [Example 58, 1-(3-(2,3-dichlo-rophenyl)-1H-pyrazolo[3,4-b]-pyrazin-6-yl)-4-(fluoromethyl)-piperidin-4-amine], the figures for the IC50 in assay [1] (setting [3]) and in assay [2] (setting [4]) were 338 nM and 109 nM, respectively. For `CC1(N)CCN(c2cnc3c(-c4cn[nH]c4C(F)(F)F)n[nH]c3n2)CC1` [Example 101, 4-Methyl-1-(3-(5-(trifluoromethyl)-1H-pyrazol-4-yl)-1H-pyrazolo[3,4-b]pyrazin-6-yl)-piperidin-4-amine], in that order: 1890 nM and 638 nM. Turning to `Cc1c(-c2n[nH]c3nc(N4CCC(C)(CN)CC4)cnc23)ccnc1N` [Example 124, 4-(6-(4-(Aminomethyl)-4-methylpiperidin-1-yl)-1H-pyrazolo[3,4-b]pyrazin-3-yl)-3-methylpyridin-2-amine], the half-maximal inhibitory concentration (IC50) in assay [1] (setting [3]) turned out to be 377 nM. On the same count and under the same terms, then `Cc1c(-c2n[nH]c3nc(N4CCC5(CCC[C@H]5N)CC4)cnc23)ccnc1N` [Example 122, (R)-8-(3-(2-amino-3-methylpyridin-4-yl)-1H-pyrazolo[3,4-b]pyrazin-6-yl)-8-azaspiro[4.5]decan-1-amine], with 205 nM. The same measure, in the same setting: then `CC1(N)CCN(c2cnc3c(-c4cccc(Cl)c4F)n[nH]c3n2)CC1` [Example 26, 1-(3-(3-chloro-2-fluorophenyl)-1H-pyrazolo[3,4-b]-pyrazin-6-yl)-4-methylpiperidin-4-amine], with 213 nM; and `Cc1c(Cl)cccc1-c1n[nH]c2nc(N3CCC4(CCC[C@H]4N)CC3)cnc12` [Example 51, (R)-8-(3-(3-chloro-2-methylphenyl)-1H-pyrazolo[3,4-b]pyrazin-6-yl)-8-azaspiro[4.5]decan-1-amine], with 153 nM; and `COc1cc(-c2n[nH]c3nc(N4CCC5(CCC[C@H]5N)CC4)cnc23)ccc1Cl` [Example 34, (R)-8-(3-(4-chloro-3-methoxyphenyl)-1H-pyrazolo[3,4-b]-pyrazin-6-yl)-8-aza-spiro[4.5]decan-1-amine], with 102 nM.

Take `COc1cc(Cl)cc(-c2n[nH]c3nc(N4CCC5(CCC[C@H]5N)CC4)cnc23)c1` [Example 52, (R)-8-(3-(3-chloro-5-methoxyphenyl)-1H-pyrazolo[3,4-b]pyrazin-6-yl)-8-azaspiro[4.5]decan-1-amine]: in assay [1] (setting [3]), the IC50 came out at 313 nM.
